Reference: patent publication US20200197354A1, “METHODS, COMPOSITIONS AND CONTAINERS FOR REDUCING SOLID FORM QUERCETIN DEGRADATION AND 2,4,6-TRIHYDROXYBENZOIC ACID TOXIC BYPRODUCT THEREOF” (PUBLIC JOINT STOCK COMPANY "SCIENTIFICINDUSTRIALCENTRE …, priority 2018, published 2020)
Converted amounts (≈) assume the structure as drawn.

What was measured:
[1] = humans, cited from earlier work
[2] = human oral exposure; cited from earlier work
HCT-116 human cells = details: cited from earlier work
Daphnia magna [3] = details: in vivo, 48 h
Procedure: Toxicity is determined using a Daphnia magna mobility assay as described (Kamaya et al., 2005). Neonates (<24 h old) from 2-3-week-old mothers are placed in a 50 ml glass beaker containing 40 ml of a test solution. All experiments for exposure and controls without chemicals are made in four replicates and performed at 21±0.3° C. under 16 h light: 8 h dark photoperiod. Immobility is used as the endpoint for determining acute toxicity; the daphnids showing no movement within 15 s after gentle stirring are defined to be immobile. After 24 and 48 h, the number of immobile daphnids is recorded to determine the concentration able to achieve 50% immobilization and it is indicated as EC50. The EC50 values are calculated by Probit analyses (USEPA, 1993), based on nominal concentrations and compared to similar experiments using benzoic acid and 2,4,6-THBA.

CDK6 = CDK6 (Homo sapiens, UniProt Q00534); details: cited from earlier work
CDK2 = CDK2 (Homo sapiens, UniProt P24941); details: cited from earlier work
[4] = tested on: Pseudokirchneriella subcapitata; details: 48 h
Procedure: Toxicity is determined using green algae Pseudokirchneriella subcapitata growth rate assay as described (Lee and Chen, 2009). Algal inoculum are withdrawn from the chemostat operated under a steady state, and transferred into 300 mL BOD bottles, together with dilution water (with growth medium) and toxicants. The BOD bottles are filled completely, leaving no headspace. A water seal is provided to ensure a closed test environment. The bottles are then placed on an orbital shaker operated at 100 rpm. Temperature and light intensity are kept at 24±1©° C. and 65 microEm−2 s−1 (±10%), respectively. US EPA bottle medium, with no EDTA content is used for toxicity testing. A sample of lyophilized quercetin (10%)/PVP (90%) is resuspended in solution. Two response endpoints are used to evaluate the toxicity of the resuspended quercetin; the final yield and algal growth rate based on cell density counts. […] The initial inoculated cell density is 15,000 cells/mL and the duration of the test is 48 h.

CDK4 = CDK4 (Homo sapiens, UniProt P11802); details: cited from earlier work
Daphnia magna [5] = details: cited from earlier work
[6] = tested on: Pseudokirchneriella subcapitata; details: cited from earlier work
[7] = human
Source text: Potential human toxicity of 2,4,6-THBA can be related to its toxicity based on studies with Daphnia.

CDK1 = CDK1 (Homo sapiens, UniProt P06493); details: cited from earlier work
CDK1, sequence (P06493 whole entry, species assumed): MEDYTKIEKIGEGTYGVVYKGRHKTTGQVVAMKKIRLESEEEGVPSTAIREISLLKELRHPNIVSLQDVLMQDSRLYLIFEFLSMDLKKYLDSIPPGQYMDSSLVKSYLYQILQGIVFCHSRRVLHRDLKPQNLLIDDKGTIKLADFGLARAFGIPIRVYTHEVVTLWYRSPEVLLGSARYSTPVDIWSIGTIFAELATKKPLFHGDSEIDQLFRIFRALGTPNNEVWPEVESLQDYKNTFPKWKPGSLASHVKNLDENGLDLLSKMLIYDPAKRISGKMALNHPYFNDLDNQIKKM
CDK1, sequence (P14635 whole entry partner, species assumed): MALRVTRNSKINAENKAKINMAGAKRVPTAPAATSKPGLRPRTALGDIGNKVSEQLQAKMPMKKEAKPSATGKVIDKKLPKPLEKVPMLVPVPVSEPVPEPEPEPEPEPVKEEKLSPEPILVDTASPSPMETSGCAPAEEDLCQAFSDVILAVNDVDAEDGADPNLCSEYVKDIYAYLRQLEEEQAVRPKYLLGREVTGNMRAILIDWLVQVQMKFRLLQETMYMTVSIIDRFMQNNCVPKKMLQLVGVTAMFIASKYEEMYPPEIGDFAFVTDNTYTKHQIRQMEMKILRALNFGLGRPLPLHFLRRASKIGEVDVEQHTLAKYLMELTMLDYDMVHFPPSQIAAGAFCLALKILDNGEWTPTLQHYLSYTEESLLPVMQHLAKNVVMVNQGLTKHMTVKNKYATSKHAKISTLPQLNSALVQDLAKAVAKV

CDK6, sequence (Q00534 whole entry): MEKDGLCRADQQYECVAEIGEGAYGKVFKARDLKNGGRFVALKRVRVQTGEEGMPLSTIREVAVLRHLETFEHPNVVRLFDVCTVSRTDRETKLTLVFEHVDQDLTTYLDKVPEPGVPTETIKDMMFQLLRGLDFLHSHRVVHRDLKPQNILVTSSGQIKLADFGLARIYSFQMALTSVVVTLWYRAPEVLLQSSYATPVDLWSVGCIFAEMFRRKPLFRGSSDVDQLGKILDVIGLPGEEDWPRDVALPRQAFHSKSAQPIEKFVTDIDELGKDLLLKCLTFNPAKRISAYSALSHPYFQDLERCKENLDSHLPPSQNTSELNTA
CDK6, sequence (P24385 whole entry partner): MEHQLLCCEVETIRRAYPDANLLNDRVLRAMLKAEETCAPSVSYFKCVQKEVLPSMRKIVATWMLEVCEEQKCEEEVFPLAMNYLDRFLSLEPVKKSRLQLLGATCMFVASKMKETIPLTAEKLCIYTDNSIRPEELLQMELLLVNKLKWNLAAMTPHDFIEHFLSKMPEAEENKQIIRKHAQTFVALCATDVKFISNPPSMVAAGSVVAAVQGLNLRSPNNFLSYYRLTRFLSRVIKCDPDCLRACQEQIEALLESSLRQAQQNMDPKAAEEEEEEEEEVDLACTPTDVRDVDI
CDK4, sequence (P11802 whole entry): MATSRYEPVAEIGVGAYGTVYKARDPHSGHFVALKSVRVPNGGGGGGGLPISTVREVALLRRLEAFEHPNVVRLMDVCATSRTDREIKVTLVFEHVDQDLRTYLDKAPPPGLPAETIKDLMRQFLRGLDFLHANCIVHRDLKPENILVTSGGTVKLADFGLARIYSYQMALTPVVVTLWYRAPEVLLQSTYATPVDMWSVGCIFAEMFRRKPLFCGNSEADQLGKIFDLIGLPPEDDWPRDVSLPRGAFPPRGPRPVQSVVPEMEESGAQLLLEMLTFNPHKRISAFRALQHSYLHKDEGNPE
CDK4, sequence (P24385 whole entry partner): as the sequence (P24385 whole entry partner) above

SMILES | elimination half-life ([1]; after ingestion in foods or supplements) | bioavailability of quercetin [1] | RfD / toxicity in humans [2] | cytotoxicity compared to other salicylic acid metabolites (HCT-116 human cells) | toxicity relative to benzoic acid (Daphnia magna [3]) | inhibitory effect on CDK6 (CDK6) | inhibitory effect on CDK2 (CDK2) | toxicity relative to benzoic acid and its other derivatives [4] | inhibitory effect on CDK4 (CDK4) | EC50 at 48 h, mobility assay (Daphnia magna [5]) | LC50 in 48 h, immobilization test (Daphnia magna [5]) | EC50, suppression of growth [6] | RfD estimated from Daphnia EC50 [7] | RfD-based toxicity relative to benzoic acid [7] | RfD-based toxicity relative to quercetin [7] | inhibitory effect on CDK1 (CDK1)
O=c1c(O)c(-c2ccc(O)c(O)c2)oc2cc(O)cc(O)c12 [quercetin, 2-(3,4-dihydroxyphenyl)-3,5,7-trihydroxy-4H-chromen-4-one] | 1 to 2 h | 0-50% | more than 15 mg/kg/day | – | – | – | – | – | – | – | – | – | – | – | – | –
O=C(O)c1c(O)cc(O)cc1O [2,4,6-THBA, 2,4,6-trihydroxybenzoic acid] | – | – | – | more cytotoxic | about 500 times | strong inhibitory effect | strong inhibitory effect | 70 times | strong inhibitory effect | 1.7 µg/mL (≈ 9.99 µM) | 1.7 µg/mL (≈ 9.99 µM) | 0.546 µg/mL | 0.02 mg/kg/day | more than 50 times | 700 times | strong inhibitory effect
O=C(O)c1ccccc1 [benzoic acid] | – | – | 1 mg/kg/day | – | – | – | – | – | – | 860 µg/mL (≈ 7040 µM) | – | 36 µg/mL | – | – | – | –
